A short description of data set [1]: Eleven ICI patients with irAE treated with ruxolitinib in combination with corticosteroids and abatacept.
The conditions of data set [2]: human, in vivo; cited from earlier work.
Data set [3] can be described thus: Adverse events on nivolumab second-line therapy for metastatic pulmonary adenocarcinoma. The note with it: after 2 treatments with nivolumab (4 weeks after treatment initiation). The data set is classed as in vivo, human. The text has this:
Myositis was suspected due to increased creatine kinase levels and confirmed by muscle biopsy. Myocarditis was confirmed with troponin increase, premature ventricular contractions and deterioration of left-ventricular ejection fraction with no signs of acute coronary syndrome on angiogram.

Consider `N#CC[C@H](C1CCCC1)n1cc(-c2ncnc3[nH]ccc23)cn1` [Ruxolitinib, (3R)-3-Cyclopentyl-3-[4-(7H-pyrrolo[2,3-d]pyrimidin-4-yl)pyrazol-1-yl]propanenitrile], for which, for the setting “human, in vivo”, the “effect on tumor progression” value is “no effect” and the tumor progression entry is “no evidence of tumor progression”. For the same compound, the relief of myotoxicity entry (oral ruxolitinib, summary of the case) is “symptomatic relief”. Moreover, the oculomotor disorders result (person, ruxolitinib 15 mg twice daily) was “improvement”. The troponin result (person, ruxolitinib 15 mg twice daily, corticosteroids tapered) is “prompt decrease”. Also, the myotoxicity outcome (ruxolitinib continued for 1 month at 15 mg twice daily) is listed as “complete resolution”. In data set [1] (first 3 months follow-up, 11 patients), the “deaths not related to irAE (hemorrhagic choc n=1; COVID19 n=2)” value is on record as “three”. In addition, the “evolution of concurrent irAE” value in data set [1] (first 3 months follow-up, 11 patients, myasthenia like symptoms, hepatitis, thyroiditis) is “evolved favorably”. For the same compound, the “death related to an irAE” value in data set [1] (human, in vivo) was “no death”.
Turning to abatacept, the “effect in patients with myotoxicity” value in data set [2] was “positive effect”.
Consider “nivolumab: PD-1 inhibitor: IgG4 PD1 antibody”, for which, in data set [3], the adverse events developed result was “developed myalgia, diplopia and bilateral ptosis”.

Source of the values: patent US12697335B2, “Method for treating immune toxicities induced by immune checkpoint inhibitors” (ASSISTANCE PUBLIQUE—HÔPITAUX DE PARIS, priority 2020, dated 2026).
